The values that follow are results of earlier work, collected in patent publication US12351592B2 (UNIVERSIDAD SANTIAGO DE CALI, priority 2019, dated 2025).

On to `CN(C)C(=N)N=C(N)N` [Metformin], for which, under “in vivo”, the “distribution volume (Vd)” value is 654±358 I. The access to erythrocytes (slow access) is 5 % of the blood dose.
